Data as given in publication PMC3445516 (PLoS ONE, 2012).
Where two headings read alike, the source gives them in different places. One block for each compound: values may come before it.

How the values were obtained:
Test in all cases: Ambit kinase profiling, competition binding
CDK3 = target: T1, CDK3 (Homo sapiens, UniProt Q00526); conditions: for % Competition: 10 µM
T1 construct: purchased Ambit Biosciences (KINOMEscan)
Procedure: (§1) Also included in the kinase profile are four isoforms of PKC (δ, ε, η, θ) and eight isoforms of CAMKs (CAMKIα, δ, γ; CAMKIIα, β, δ, γ; CAMK4).
(§2) The global kinase profiling experiment was performed by Ambit Biosciences.

NLK = target: T2, NLK (Homo sapiens, UniProt Q9UBE8)
T2 construct: purchased Ambit Biosciences (KINOMEscan)
T2 sequence (Q9UBE8 1-527): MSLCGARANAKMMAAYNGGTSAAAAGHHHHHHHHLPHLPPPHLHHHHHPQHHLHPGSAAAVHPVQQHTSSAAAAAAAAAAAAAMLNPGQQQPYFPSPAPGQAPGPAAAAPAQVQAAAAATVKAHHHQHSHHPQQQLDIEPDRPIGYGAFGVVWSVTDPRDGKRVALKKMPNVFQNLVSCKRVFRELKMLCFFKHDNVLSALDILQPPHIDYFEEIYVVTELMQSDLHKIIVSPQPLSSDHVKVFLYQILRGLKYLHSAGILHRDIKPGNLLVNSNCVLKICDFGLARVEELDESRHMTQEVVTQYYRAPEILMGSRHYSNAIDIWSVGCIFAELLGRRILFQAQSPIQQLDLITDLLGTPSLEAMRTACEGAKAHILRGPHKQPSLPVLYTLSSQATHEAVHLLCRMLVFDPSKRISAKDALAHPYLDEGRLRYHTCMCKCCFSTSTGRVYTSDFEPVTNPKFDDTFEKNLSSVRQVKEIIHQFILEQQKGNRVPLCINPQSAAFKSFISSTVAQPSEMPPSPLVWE
Procedure: as §1, §2

MEK3 = target: T3, MEK3 (Homo sapiens, UniProt P46734)
T3 construct: purchased Ambit Biosciences (KINOMEscan)
T3 sequence (P46734 1-347): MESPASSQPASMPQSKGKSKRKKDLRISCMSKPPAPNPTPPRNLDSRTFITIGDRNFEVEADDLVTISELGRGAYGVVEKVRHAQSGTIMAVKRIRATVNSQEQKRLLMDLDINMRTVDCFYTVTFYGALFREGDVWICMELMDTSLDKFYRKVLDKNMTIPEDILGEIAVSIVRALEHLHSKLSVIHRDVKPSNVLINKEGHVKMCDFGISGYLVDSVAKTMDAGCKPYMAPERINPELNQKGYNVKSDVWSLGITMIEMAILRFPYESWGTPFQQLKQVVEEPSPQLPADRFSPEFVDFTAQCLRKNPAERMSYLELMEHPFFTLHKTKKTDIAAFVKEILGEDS
Procedure: as §1, §2

PLK4 = target: T4, PLK4 (Homo sapiens, UniProt O00444)
T4 construct: purchased Ambit Biosciences (KINOMEscan)
T4 sequence (O00444 1-970): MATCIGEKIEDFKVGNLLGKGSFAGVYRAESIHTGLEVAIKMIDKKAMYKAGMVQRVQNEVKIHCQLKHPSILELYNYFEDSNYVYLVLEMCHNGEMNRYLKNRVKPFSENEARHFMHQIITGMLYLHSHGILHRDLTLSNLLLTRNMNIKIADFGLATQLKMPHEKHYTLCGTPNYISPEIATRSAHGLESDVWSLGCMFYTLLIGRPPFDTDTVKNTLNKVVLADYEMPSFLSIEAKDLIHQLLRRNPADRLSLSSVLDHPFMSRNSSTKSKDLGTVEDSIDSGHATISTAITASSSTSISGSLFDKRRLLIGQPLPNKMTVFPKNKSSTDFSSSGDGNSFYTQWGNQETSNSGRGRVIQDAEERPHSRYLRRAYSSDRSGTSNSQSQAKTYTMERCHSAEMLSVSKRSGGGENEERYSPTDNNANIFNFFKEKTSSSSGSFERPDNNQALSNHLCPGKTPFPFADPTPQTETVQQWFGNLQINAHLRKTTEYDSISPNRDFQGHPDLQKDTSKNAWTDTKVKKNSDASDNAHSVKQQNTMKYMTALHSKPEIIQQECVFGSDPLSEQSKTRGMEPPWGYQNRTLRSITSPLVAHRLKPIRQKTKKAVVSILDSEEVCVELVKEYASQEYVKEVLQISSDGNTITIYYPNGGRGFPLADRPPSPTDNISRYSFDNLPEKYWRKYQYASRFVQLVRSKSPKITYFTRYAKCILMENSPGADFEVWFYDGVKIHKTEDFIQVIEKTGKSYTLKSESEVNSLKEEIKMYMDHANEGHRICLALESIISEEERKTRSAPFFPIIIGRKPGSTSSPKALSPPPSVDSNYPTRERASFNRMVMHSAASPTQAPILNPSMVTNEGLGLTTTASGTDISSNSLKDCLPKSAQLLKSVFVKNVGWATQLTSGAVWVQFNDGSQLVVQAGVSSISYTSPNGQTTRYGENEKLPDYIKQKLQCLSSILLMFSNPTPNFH
Procedure: as §1, §2

DDR1 = target: T5, DDR1 (Homo sapiens, UniProt Q08345)
T5 construct: purchased Ambit Biosciences (KINOMEscan)
T5 sequence (Q08345 19-913): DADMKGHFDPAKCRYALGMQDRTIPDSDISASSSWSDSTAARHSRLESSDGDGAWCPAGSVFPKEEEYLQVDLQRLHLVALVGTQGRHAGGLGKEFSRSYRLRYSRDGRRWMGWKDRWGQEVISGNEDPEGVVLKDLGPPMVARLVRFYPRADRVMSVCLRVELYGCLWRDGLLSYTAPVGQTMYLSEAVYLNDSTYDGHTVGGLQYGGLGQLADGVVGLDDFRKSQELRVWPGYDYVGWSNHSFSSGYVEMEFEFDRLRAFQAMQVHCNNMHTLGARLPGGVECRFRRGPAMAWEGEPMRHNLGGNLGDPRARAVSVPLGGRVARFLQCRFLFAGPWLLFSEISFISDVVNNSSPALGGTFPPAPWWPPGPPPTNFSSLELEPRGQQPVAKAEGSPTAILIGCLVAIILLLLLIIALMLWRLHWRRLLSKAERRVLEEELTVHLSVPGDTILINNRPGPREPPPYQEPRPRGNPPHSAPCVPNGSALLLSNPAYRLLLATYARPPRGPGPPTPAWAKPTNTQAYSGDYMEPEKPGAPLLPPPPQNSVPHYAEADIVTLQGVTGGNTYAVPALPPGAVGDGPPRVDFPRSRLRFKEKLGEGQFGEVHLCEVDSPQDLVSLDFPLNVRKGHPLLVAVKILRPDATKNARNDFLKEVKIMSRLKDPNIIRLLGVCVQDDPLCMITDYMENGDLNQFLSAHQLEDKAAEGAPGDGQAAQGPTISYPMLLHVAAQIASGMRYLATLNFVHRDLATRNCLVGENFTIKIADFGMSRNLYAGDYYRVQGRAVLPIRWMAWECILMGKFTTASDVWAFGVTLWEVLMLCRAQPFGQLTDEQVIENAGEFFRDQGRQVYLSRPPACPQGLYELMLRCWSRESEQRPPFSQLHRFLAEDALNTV
Procedure: as §1, §2

CAMKIIγ = target: T6, CAMKIIγ (Homo sapiens, UniProt Q13555); conditions: for competition: CAMKIIγ, 10 µM
T6 construct: purchased Ambit Biosciences (KINOMEscan)
T6 sequence (Q13555 whole entry): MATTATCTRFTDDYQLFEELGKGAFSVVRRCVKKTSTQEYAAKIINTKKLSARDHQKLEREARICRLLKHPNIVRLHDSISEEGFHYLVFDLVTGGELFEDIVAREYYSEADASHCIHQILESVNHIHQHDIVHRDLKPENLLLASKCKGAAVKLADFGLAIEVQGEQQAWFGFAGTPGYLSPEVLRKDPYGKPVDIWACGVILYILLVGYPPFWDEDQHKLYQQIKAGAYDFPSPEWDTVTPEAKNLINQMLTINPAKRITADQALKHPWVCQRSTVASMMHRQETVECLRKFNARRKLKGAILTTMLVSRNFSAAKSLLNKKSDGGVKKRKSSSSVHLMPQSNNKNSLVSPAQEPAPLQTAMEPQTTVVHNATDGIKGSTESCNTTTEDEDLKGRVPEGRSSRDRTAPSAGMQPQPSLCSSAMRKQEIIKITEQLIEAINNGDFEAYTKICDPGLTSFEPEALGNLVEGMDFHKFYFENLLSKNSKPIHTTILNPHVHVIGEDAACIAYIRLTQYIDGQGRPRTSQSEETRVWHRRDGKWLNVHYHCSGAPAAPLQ
Procedure: as §1, §2

[1] = target: T7, RPS6KA1(Kin.Dom.2-C-terminal) (Homo sapiens, UniProt Q15418)
T7 construct: RPS6KA1(Kin.Dom.2-C-terminal); purchased Ambit Biosciences (KINOMEscan)
T7 sequence (Q15418 392-735 limits assumed): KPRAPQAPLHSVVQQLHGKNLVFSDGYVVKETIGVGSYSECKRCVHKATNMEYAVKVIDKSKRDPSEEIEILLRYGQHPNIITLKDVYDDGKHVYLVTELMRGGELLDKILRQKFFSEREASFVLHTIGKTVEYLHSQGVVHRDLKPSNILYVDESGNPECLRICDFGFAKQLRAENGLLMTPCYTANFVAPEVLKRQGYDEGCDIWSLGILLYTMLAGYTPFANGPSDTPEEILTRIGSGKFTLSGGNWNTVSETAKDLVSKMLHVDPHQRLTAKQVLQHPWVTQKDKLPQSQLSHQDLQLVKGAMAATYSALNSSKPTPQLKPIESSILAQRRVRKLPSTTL
Procedure: as §1, §2

ACVR1 = target: T8, ACVR1 (Homo sapiens, UniProt Q04771)
T8 construct: purchased Ambit Biosciences (KINOMEscan)
T8 sequence (Q04771 21-509): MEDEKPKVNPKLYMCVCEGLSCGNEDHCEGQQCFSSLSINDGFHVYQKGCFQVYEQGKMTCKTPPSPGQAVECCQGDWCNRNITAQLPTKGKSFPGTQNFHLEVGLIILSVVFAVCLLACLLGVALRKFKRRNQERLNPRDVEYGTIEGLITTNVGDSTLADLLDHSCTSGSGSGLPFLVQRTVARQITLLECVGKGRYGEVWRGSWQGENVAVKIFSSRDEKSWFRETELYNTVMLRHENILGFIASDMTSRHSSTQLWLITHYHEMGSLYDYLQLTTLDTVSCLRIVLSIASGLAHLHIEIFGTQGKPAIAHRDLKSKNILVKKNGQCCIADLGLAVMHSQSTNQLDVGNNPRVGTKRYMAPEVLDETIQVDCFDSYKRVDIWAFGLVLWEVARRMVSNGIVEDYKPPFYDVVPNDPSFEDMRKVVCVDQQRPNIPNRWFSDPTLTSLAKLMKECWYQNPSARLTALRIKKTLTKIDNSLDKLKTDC
Procedure: as §1, §2

T1 sequence (Q00526 whole entry): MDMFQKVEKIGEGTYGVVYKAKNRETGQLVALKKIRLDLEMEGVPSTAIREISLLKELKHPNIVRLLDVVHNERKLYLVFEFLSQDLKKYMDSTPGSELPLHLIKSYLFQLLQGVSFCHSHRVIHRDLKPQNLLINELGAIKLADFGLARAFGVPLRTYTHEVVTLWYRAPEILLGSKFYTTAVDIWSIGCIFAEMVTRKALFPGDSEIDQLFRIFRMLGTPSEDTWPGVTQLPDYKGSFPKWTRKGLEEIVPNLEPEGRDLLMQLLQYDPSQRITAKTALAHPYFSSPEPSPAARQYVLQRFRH

Percent Competition (CDK3; compound concentration 10 uM): 92% | inhibition at 10 µM (NLK; NLK, compound concentration 10 uM, read-out: Percent Competition): 98% | inhibition at 10 µM (MEK3; MEK3, compound concentration 10 uM, read-out: Percent Competition): 99% | inhibition at 10 µM (PLK4; PLK4, compound concentration 10 uM, read-out: Percent Competition): 98% | inhibition at 10 µM (DDR1; DDR1, compound concentration 10 uM, read-out: Percent Competition): 100% | inhibition at 10 µM (CAMKIIγ; CAMK2G, compound concentration 10 uM, read-out: Percent Competition): < 50% | inhibition at 10 µM ([1]; RPS6KA1(Kin.Dom.2-C-terminal), compound concentration 10 uM, read-out: Percent Competition): 92% | inhibition at 10 µM (ACVR1; ACVR1, compound concentration 10 uM, read-out: Percent Competition): 92%
Structure (SMILES): Fc1ccc(-c2c(-c3ccncc3)[nH]c3nccnc23)cc1 [RO1155697-000-005]

% Competition (CDK3): 92% | inhibition at 10 µM (NLK; NLK, 10 µM, read-out: % Competition): 98% | inhibition at 10 µM (MEK3; MEK3, 10 µM, read-out: % Competition): 99% | inhibition at 10 µM (PLK4; PLK4, 10 µM, read-out: % Competition): 98% | inhibition at 10 µM (DDR1; DDR1, 10 µM, read-out: % Competition): 100% | competition (CAMKIIγ): < 50% | inhibition at 10 µM ([1]; RPS6KA1(Kin.Dom.2-C-terminal), 10 µM, read-out: % Competition): 92% | inhibition at 10 µM (ACVR1; ACVR1, 10 µM, read-out: % Competition): 92%
Structure (SMILES): Fc1ccc(-c2c(-c3ccncc3)[nH]c3nccnc23)cc1 [Compound 122]

Structure (SMILES): CC(O)CNc1cc(-c2[nH]c3cccnc3c2-c2ccc(F)cc2)ccn1 (stereo not drawn) [Compound 140]
% Competition (CDK3): <50% | inhibition at 10 µM (NLK; read-out: % Competition): 91% | inhibition at 10 µM (MEK3; read-out: % Competition): < 50% | inhibition at 10 µM (PLK4; read-out: % Competition): < 50% | inhibition at 10 µM (DDR1; read-out: % Competition): 98% | competition (CAMKIIγ): < 50% | inhibition at 10 µM ([1]; read-out: % Competition): 87% | inhibition at 10 µM (ACVR1; read-out: % Competition): < 50%
